Values joined by “and” are separate entries in the source; they are usually repeats but may differ in a detail not shown here. Identical values can stand only once. After the bases stand the sugars from the 5' end (letter, count) and the backbone: PS all phosphorothioate, else s phosphorothioate and o phosphodiester by linkage. Methylation of C is not given here. e = 2'-O-(2-methoxyethyl) (MOE); k = constrained ethyl (cEt); d = 2'-deoxy (DNA)
Target: APOL1
Conditions: ASO

Row | Sequence | target mRNA inhibition (A431, 0.0625 µM) | target mRNA inhibition (A431, 0.25 µM) | target mRNA inhibition (A431, 1 µM) | target mRNA inhibition (A431, 2 µM) [%] | target mRNA inhibition (A431, 0.0156 µM) [%] | target mRNA inhibition (A431, 0.04 µM) [%]
1 | CTTATGCTTACTCCAC (sugars k4 d9 k3, PS) | 64% | 75% | 90% | – | – | –
2 | CTTTAAACTCAGGTGA (sugars k2 d4 e4 k2 d4, PS) | – | – | – | 88 | – | –
3 | CTTTAAACTCAGGTGA (sugars kkdddddkekeddddd, PS) | – | – | – | 87 | – | –
4 | CTTTAAACTCAGGTGA (sugars kkkddddkekekdddd, PS) | – | – | – | 40 | – | –
5 | CTTTATACCAGTGTCT (sugars kkdddddkekeddddd, PS) | 41% | 74% | 92% | 97 | 14 | –
6 | CTTTATACCAGTGTCT (sugars kkddddekekeddddd, PS) | 60% | 82% | 95% | 98 | 29 | 50
7 | GAACATTGAAACACCA (sugars k4 d9 k3, PS) | 39% | 70% | 89% | – | – | –
8 | GAACGCAATGCTGACT (sugars kkddddekekeddddd, PS) | 40% | 74% | 92% | 95 | 19 | –
9 | GAAGATTGGCTCTGGC (sugars kkddddekekeddddd, PS) | – | – | – | 64 | – | –
10 | GAAGATTGGCTCTGGC (sugars kkddddkekekddddd, PS) | – | – | – | 48 | – | –
11 | GAAGATTGGCTCTGGC (sugars kkkddddkdkdkdddd, PS) | – | – | – | 51 | – | –
12 | GAAGATTGGCTCTGGC (sugars kkkddddkekekdddd, PS) | – | – | – | 16 | – | –
13 | GAAGCTTTAAACTCAG (sugars k2 d4 e3 k2 d5, PS) | – | – | – | 72 | – | –
14 | GAATGAGCAGGTCAGA (sugars k4 d9 k3, PS) | 41% | 75% | 91% | – | – | –
15 | GAATTATGGAATTGCA (sugars k3 d4 k3 e1 d5, PS) | – | – | – | 90 | – | –
16 | GAATTATGGAATTGCA (sugars kkddddkdkdkddddd, PS) | – | – | – | 82 | – | –
17 | GAGTATTGTTTTTGTG (sugars kkdddddkekeddddd, PS) | 75% | 91% | 96% | 96 | 33 | –
18 | GAGTATTGTTTTTGTG (sugars kkddddkekekkdddd, PS) | – | – | – | 85 | – | –
19 | GAGTATTGTTTTTGTG (sugars kkkddddkekekdddd, PS) | – | – | – | 56 | – | –
20 | GCAATTTTATGGAACC (sugars k4 d9 k3, PS) | – | – | 91% | – | – | 42
21 | GCATTCAGAATTTCCA (sugars kkkddddkekeddddd, PS) | – | – | – | 84 | – | –
22 | GCTAAGTTCCGGTCTC (sugars k4 d9 k3, PS) | 50% | 74% | 85% | – | – | –
23 | GCTAATTTTCTGACTG (sugars kkdddddkekeddddd, PS) | 47% | 82% | 94% | 99 | 11 | –
24 | GCTAATTTTCTGACTG (sugars kkddddkdkdkddddd, PS) | 40% | 71% | 87% | 93 | 10 | –
25 | GCTAATTTTCTGACTG (sugars kkkddddkekekdddd, PS) | – | – | – | 88 | – | –

Row | Sequence | target mRNA inhibition (A431, 0.0625 µM) | target mRNA inhibition (A431, 0.25 µM) | target mRNA inhibition (A431, 1 µM) | target mRNA inhibition (A431, 2 µM) [%] | target mRNA inhibition (A431, 0.0156 µM) [%] | target mRNA inhibition (A431, 0.04 µM) [%]
26 | GCTTTAAACTCAGGTG (sugars k2 d4 e3 k2 d5, PS) | – | – | – | 91 | – | –
27 | GCTTTAAACTCAGGTG (sugars k3 d4 k3 e1 d5, PS) | – | – | – | 74 | – | –
28 | GCTTTAAACTCAGGTG (sugars kekddddeekkddddd, PS) | – | – | – | 93 | – | –
29 | GCTTTAAACTCAGGTG (sugars kkdddddkekeddddd, PS) | 35% | 67% | 85% | 91 | 6 | –
30 | GCTTTAAACTCAGGTG (sugars kkkddddkdkdkdddd, PS) | 54% | 81% | 93% | 93 | 18 | –
31 | GCTTTAAACTCAGGTG (sugars kkkddddkekekdddd, PS) | – | – | – | 68 | – | –
32 | GGAATTATGGAATTGC (sugars k3 d4 k3 e1 d5, PS) | – | – | – | 65 | – | –
33 | GGAATTATGGAATTGC (sugars kkddddekekeddddd, PS) | 62% | 89% | 97% | 97 | 23 | –
34 | GGAATTATGGAATTGC (sugars kkddddkdkdkddddd, PS) | – | – | – | 89 | – | –
35 | GGCAGTTTTGTAAGTG (sugars kkddddekekeddddd, PS) | – | – | – | 75 | – | –
36 | GGCAGTTTTGTAAGTG (sugars kkddddkekekddddd, PS) | – | – | – | 65 | – | –
37 | GGCATTCAGAATTTCC (sugars k2 d4 e3 k2 d5, PS) | – | – | – | 97 | – | –
38 | GGCATTCAGAATTTCC (sugars kkddddekekeddddd, PS) | – | – | – | 93 | – | –
39 | GGCATTCAGAATTTCC (sugars kkddddkekekddddd, PS) | – | – | – | 46 | – | –
40 | GGCATTCAGAATTTCC (sugars kkkddddkekekdddd, PS) | – | – | – | 20 | – | –
41 | GGGTTATGAAATTATT (sugars kkddddkekekddddd, PS) | – | – | – | 84 | – | –
42 | GGTAAGAGCGATGGGA (sugars k3 d10 k3, PS) | 79% | 93% | 97% | – | – | –
43 | GGTTATGAAATTATTG (sugars k2 d4 e3 k2 d5, PS) | – | – | – | 61 | – | –
44 | GGTTATGAAATTATTG (sugars kkkddddkekeddddd, PS) | – | – | – | 88 | – | –
45 | GGTTCAAAAGCAGCAT (sugars k2 d4 e3 k2 d5, PS) | 60% | 86% | 94% | 95 | 21 | –
46 | GGTTCAAAAGCAGCAT (sugars k4 d9 k3, PS) | 78% | 91% | 95% | – | – | –
47 | GTAAGTATTGCCAGCT (sugars k2 d4 e3 k2 d5, PS) | – | – | – | 89 | – | –
48 | GTAAGTGCAACCAATC (sugars k4 d9 k3, PS) | 75% | 93% | 99% | – | – | –
49 | GTATTGCCAGCTAAGG (sugars kddddkekekeddddd, PS) | – | – | – | 70 | – | –
50 | GTATTTCTTGATGTGG (sugars kdddddkekekddddd, PS) | – | – | – | 92 | – | –

Row | Sequence | target mRNA inhibition (A431, 0.0625 µM) | target mRNA inhibition (A431, 0.25 µM) | target mRNA inhibition (A431, 1 µM) | target mRNA inhibition (A431, 2 µM) [%] | target mRNA inhibition (A431, 0.0156 µM) [%] | target mRNA inhibition (A431, 0.04 µM) [%]
51 | GTATTTCTTGATGTGG (sugars kddddkekekeddddd, PS) | – | – | – | 87 | – | –
52 | GTGAGTATTGTTTTTG (sugars k2 d4 e3 k2 d5, PS) | – | – | – | 92 | – | –
53 | GTGAGTATTGTTTTTG (sugars kkkddddkekekdddd, PS) | – | – | – | 85 | – | –
54 | GTGTATTTCTTGATGT (sugars kkddddkekekddddd, PS) | – | – | – | 95 | – | –
55 | GTGTATTTCTTGATGT (sugars kkkddddkekekdddd, PS) | – | – | – | 84 | – | –
56 | GTGTGAGTTGGTAAGT (sugars k4 d9 k3, PS) | 54% | 85% | 95% | – | – | –
57 | GTGTTATATTTGATCC (sugars kkkddddkekeddddd, PS) | 66% | 89% | 95% | 96 | 24 | 50
58 | GTTATATTTGATCCTC (sugars k2 d4 e3 k2 d5, PS) | 31% | 67% | 89% | 93 | 2 | –
59 | GTTATATTTGATCCTC (sugars k3 d4 k3 e1 d5, PS) | – | – | – | 98 | – | –
60 | GTTATATTTGATCCTC (sugars kddddkekekeddddd, PS) | – | – | – | 60 | – | –
61 | GTTATATTTGATCCTC (sugars kkdddddkekeddddd, PS) | – | – | – | 97 | – | –
62 | GTTATATTTGATCCTC (sugars kkddddekekeddddd, PS) | 37% | 69% | 64% | 96 | 8 | –
63 | GTTATATTTGATCCTC (sugars kkddddkekekkdddd, PS) | – | – | – | 43 | – | –
64 | GTTATATTTGATCCTC (sugars kkkddddkekekdddd, PS) | – | – | – | 66 | – | –
65 | GTTATGAAATTATTGG (sugars k4 d9 k3, PS) | 58% and 42% | 87% and 73% | 95% and 87% and 97% | – | – | –
66 | GTTATGAAATTATTGG (sugars kddddkekekeddddd, PS) | – | – | – | 77 | – | –
67 | GTTATGAAATTATTGG (sugars kekddddeekkddddd, PS) | 43% | 64% | 84% | 90 | 14 | –
68 | GTTATGAAATTATTGG (sugars kkddddkekekkdddd, PS) | – | – | – | 86 | – | –
69 | GTTCAAAAGCAGCATT (sugars kdddddkekekddddd, PS) | – | – | – | 79 | – | –
70 | GTTCAAAAGCAGCATT (sugars kkkddddkdkdkdddd, PS) | – | – | – | 23 | – | –
71 | GTTCAAAAGCAGCATT (sugars kkkddddkekeddddd, PS) | – | – | – | 85 | – | –
72 | GTTCTAACTCTTGGGC (sugars k2 d4 e3 k2 d5, PS) | 35% | 65% | 85% | 91 | 20 | –
73 | GTTCTAACTCTTGGGC (sugars k4 d9 k3, PS) | 74% | 85% | 92% | – | – | –
74 | GTTCTAACTCTTGGGC (sugars kkddddekekeddddd, PS) | – | – | – | 78 | – | –
75 | GTTCTAACTCTTGGGC (sugars kkddddkdkdkddddd, PS) | 28% | 59% | 75% | 90 | 3 | –

From the OligoGym collection
